From the NIST ThermoML archive (doi:10.1016/j.jct.2016.10.023)

Experiment: xn = mol fraction of the nth substance listed
Conditions: Constant-volume piezometry

CCCCC [pentane] + CCCO
Conditions	mass density [kg/m3]
533.15 K, 7168 kPa, Fluid (supercritical or subcritical phases), x1 = 0.8	234.59
533.15 K, 7364 kPa, Fluid (supercritical or subcritical phases), x1 = 0.8	245.22
533.15 K, 7629 kPa, Fluid (supercritical or subcritical phases), x1 = 0.2	378.44
533.15 K, 7638 kPa, Fluid (supercritical or subcritical phases), x1 = 0.8	258.44
533.15 K, 7786 kPa, Fluid (supercritical or subcritical phases), x1 = 0.2	383.24
533.15 K, 7963 kPa, Fluid (supercritical or subcritical phases), x1 = 0.8	272.4
533.15 K, 8071 kPa, Fluid (supercritical or subcritical phases), x1 = 0.9	281.87
533.15 K, 8098 kPa, Fluid (supercritical or subcritical phases), x1 = 0.2	391.08
533.15 K, 8423 kPa, Fluid (supercritical or subcritical phases), x1 = 0.8	288.24
533.15 K, 8569 kPa, Fluid (supercritical or subcritical phases), x1 = 0.9	301.54
533.15 K, 8748 kPa, Fluid (supercritical or subcritical phases), x1 = 0.8	299.05
533.15 K, 9002 kPa, Fluid (supercritical or subcritical phases), x1 = 0.9	312.17
533.15 K, 9374 kPa, Fluid (supercritical or subcritical phases), x1 = 0.2	418.49
533.15 K, 9413 kPa, Fluid (supercritical or subcritical phases), x1 = 0.8	315.21
533.15 K, 10061 kPa, Fluid (supercritical or subcritical phases), x1 = 0.9	333.87
533.15 K, 10217 kPa, Fluid (supercritical or subcritical phases), x1 = 0.8	333.69
533.15 K, 10835 kPa, Fluid (supercritical or subcritical phases), x1 = 0.8	345.21
533.15 K, 11530 kPa, Fluid (supercritical or subcritical phases), x1 = 0.9	353.95
533.15 K, 12119 kPa, Fluid (supercritical or subcritical phases), x1 = 0.8	361.76
533.15 K, 13530 kPa, Fluid (supercritical or subcritical phases), x1 = 0.2	470.12
533.15 K, 17294 kPa, Fluid (supercritical or subcritical phases), x1 = 0.9	407.1
533.15 K, 18236 kPa, Fluid (supercritical or subcritical phases), x1 = 0.8	418.01
533.15 K, 19667 kPa, Fluid (supercritical or subcritical phases), x1 = 0.2	509.31
533.15 K, 29155 kPa, Fluid (supercritical or subcritical phases), x1 = 0.8	466.47
533.15 K, 29696 kPa, Fluid (supercritical or subcritical phases), x1 = 0.2	546.72
533.15 K, 39686 kPa, Fluid (supercritical or subcritical phases), x1 = 0.8	495.86
533.15 K, 44516 kPa, Fluid (supercritical or subcritical phases), x1 = 0.2	580.98
543.15 K, 1370 kPa, Gas, x1 = 0.8	22.5
543.15 K, 1634 kPa, Gas, x1 = 0.2	24.9
543.15 K, 2088 kPa, Gas, x1 = 0.8	36.65
543.15 K, 3070 kPa, Gas, x1 = 0.8	58.36
543.15 K, 3378 kPa, Gas, x1 = 0.2	52.95
543.15 K, 3671 kPa, Gas, x1 = 0.8	73.72
543.15 K, 3909 kPa, Fluid (supercritical or subcritical phases), x1 = 0.9	83.3
543.15 K, 4468 kPa, Gas, x1 = 0.2	91.32
543.15 K, 4745 kPa, Fluid (supercritical or subcritical phases), x1 = 0.8	106.3
543.15 K, 5031 kPa, Fluid (supercritical or subcritical phases), x1 = 0.2	114.24
543.15 K, 5063 kPa, Fluid (supercritical or subcritical phases), x1 = 0.9	123.23
543.15 K, 5339 kPa, Fluid (supercritical or subcritical phases), x1 = 0.9	133.99
543.15 K, 5679 kPa, Fluid (supercritical or subcritical phases), x1 = 0.2	150.2
543.15 K, 5755 kPa, Fluid (supercritical or subcritical phases), x1 = 0.8	140.17
543.15 K, 6004 kPa, Fluid (supercritical or subcritical phases), x1 = 0.9	163.8
543.15 K, 6026 kPa, Fluid (supercritical or subcritical phases), x1 = 0.2	175.44
543.15 K, 6054 kPa, Fluid (supercritical or subcritical phases), x1 = 0.8	155.89
543.15 K, 6187 kPa, Fluid (supercritical or subcritical phases), x1 = 0.2	189.45
543.15 K, 6358 kPa, Fluid (supercritical or subcritical phases), x1 = 0.8	169.62
543.15 K, 6471 kPa, Fluid (supercritical or subcritical phases), x1 = 0.2	219.88
543.15 K, 6471 kPa, Fluid (supercritical or subcritical phases), x1 = 0.8	175.86
543.15 K, 6570 kPa, Fluid (supercritical or subcritical phases), x1 = 0.9	189.27
543.15 K, 6584 kPa, Fluid (supercritical or subcritical phases), x1 = 0.8	180.65
543.15 K, 6716 kPa, Fluid (supercritical or subcritical phases), x1 = 0.2	245.23
543.15 K, 6834 kPa, Fluid (supercritical or subcritical phases), x1 = 0.2	258.94
543.15 K, 6836 kPa, Fluid (supercritical or subcritical phases), x1 = 0.8	192.97
543.15 K, 6846 kPa, Fluid (supercritical or subcritical phases), x1 = 0.9	202.18
543.15 K, 6875 kPa, Fluid (supercritical or subcritical phases), x1 = 0.2	262.64
543.15 K, 6963 kPa, Fluid (supercritical or subcritical phases), x1 = 0.2	272.09
543.15 K, 7154 kPa, Fluid (supercritical or subcritical phases), x1 = 0.2	290.25
543.15 K, 7246 kPa, Fluid (supercritical or subcritical phases), x1 = 0.9	220.47
543.15 K, 7269 kPa, Fluid (supercritical or subcritical phases), x1 = 0.8	213.64
543.15 K, 7363 kPa, Fluid (supercritical or subcritical phases), x1 = 0.2	306.52
543.15 K, 7405 kPa, Fluid (supercritical or subcritical phases), x1 = 0.8	219.4
543.15 K, 7419 kPa, Fluid (supercritical or subcritical phases), x1 = 0.2	310.74
543.15 K, 7511 kPa, Fluid (supercritical or subcritical phases), x1 = 0.2	318.45
543.15 K, 7520 kPa, Fluid (supercritical or subcritical phases), x1 = 0.9	232.83
543.15 K, 7591 kPa, Fluid (supercritical or subcritical phases), x1 = 0.9	236.29
543.15 K, 7689 kPa, Fluid (supercritical or subcritical phases), x1 = 0.9	240.69
543.15 K, 7747 kPa, Fluid (supercritical or subcritical phases), x1 = 0.8	234.47
543.15 K, 7760 kPa, Fluid (supercritical or subcritical phases), x1 = 0.9	244
543.15 K, 7964 kPa, Fluid (supercritical or subcritical phases), x1 = 0.2	340.91
543.15 K, 7983 kPa, Fluid (supercritical or subcritical phases), x1 = 0.8	245.1
543.15 K, 8042 kPa, Fluid (supercritical or subcritical phases), x1 = 0.2	343.7
543.15 K, 8294 kPa, Fluid (supercritical or subcritical phases), x1 = 0.8	258.31
543.15 K, 8708 kPa, Fluid (supercritical or subcritical phases), x1 = 0.8	272.26
543.15 K, 8845 kPa, Fluid (supercritical or subcritical phases), x1 = 0.9	281.73
